In PubChem BioAssay AID298 (DTP/NCI, 2004) one finds T/C data, which are given here for 17 compounds.

This assay deals with MX-1 breast xenograft, intrarenal, nude mice, tumor weight. The experiment in a line: NCI In Vivo Anticancer Drug Screen. Data for tumor model Human Mammary Carcinoma MX-1 Xenograft (intrarenal inoculation) in NU/NU BALB/C (nude) mice. The note with it: endpoint: mean tumor weight change, higher = larger tumour. As for the experimental part: The antitumor activity of compounds was measured in mice bearing transplantable tumors. Survival or tumor size were measured and the results are expressed as the measurement made in the treated group (T) divided by the measurement made in the vehicle treated control group (C). The tumor model used in this assay is Human Mammary Carcinoma MX-1 Xenograft (intrarenal inoculation) in NU/NU BALB/C (nude) mice
(In xenograft studies the graft and the host belong to different species.)

[1] abbreviates: dose: 150.0 mg/kg/injection, schedule: Q04DX003 (ip), vehicle: saline with Tween-80.
Where [2] appears, read: dose: 300.0 mg/kg/injection, schedule: Q04DX003 (ip), vehicle: saline with Tween-80.

Several values for one entry are separate records, joined by “and”; a condition that tells them apart may be missing. Equal values may be shown once. Records with an inconclusive call do not appear.

Consider `O=NN(CCCl)C(=O)NC1CCCCC1`, for which the T/C was 303 % of control (dose: 4.0 mg/kg/injection, schedule: Q01DX010 (ip), vehicle: saline with Tween-80); 248 % of control (dose: 8.0 mg/kg/injection, schedule: Q01DX010 (ip), vehicle: saline with Tween-80); 71 % of control (dose: 8.0 mg/kg/injection, schedule: Q01DX010 (sc), vehicle: saline with Tween-80); 66 % of control (dose: 12.5 mg/kg/injection, schedule: Q04DX003 (sc), vehicle: Klucel (hydroxypropylcellulose) (HPC)); 105 % of control (dose: 13.33 mg/kg/injection, schedule: Q04DX003 (ip), vehicle: saline with Tween-80); 263 % of control (dose: 16.0 mg/kg/injection, schedule: Q01DX010 (ip), vehicle: saline with Tween-80). The T/C (dose: 16.0 mg/kg/injection, schedule: Q01DX010 (sc), vehicle: saline with Tween-80) is 61 % of control; the T/C (dose: 25.0 mg/kg/injection, schedule: Q04DX003 (sc), vehicle: Klucel (hydroxypropylcellulose) (HPC)) is 67 % of control; the T/C (dose: 26.65 mg/kg/injection, schedule: Q04DX003 (ip), vehicle: saline with Tween-80) is 36 % of control; the T/C (dose: 26.66 mg/kg/injection, schedule: Q04DX003 (sc), vehicle: saline with Tween-80) is 64 % of control; the T/C (dose: 32.0 mg/kg/injection, schedule: Q01DX010 (ip), vehicle: saline with Tween-80) is 8 % of control; the T/C (dose: 32.0 mg/kg/injection, schedule: Q01DX010 (sc), vehicle: saline with Tween-80) is 3 % of control. In addition, the T/C (dose: 50.0 mg/kg/injection, schedule: Q04DX003 (sc), vehicle: Klucel (hydroxypropylcellulose) (HPC)) is 31 % of control; the T/C (dose: 53.3 mg/kg/injection, schedule: Q04DX003 (ip), vehicle: saline with Tween-80) is 42 % of control; the T/C (dose: 53.33 mg/kg/injection, schedule: Q04DX003 (sc), vehicle: saline with Tween-80) is 31 % of control.
Turning to `O=C(O)CCCc1ccc(N(CCCl)CCCl)cc1`, the T/C is 1 % of control and 4 % of control (dose: 12.0 mg/kg/injection, schedule: Q04DX003 (ip), vehicle: Klucel (hydroxypropylcellulose) (HPC)); 4 % of control (dose: 18.0 mg/kg/injection, schedule: Q04DX003 (ip), vehicle: Klucel (hydroxypropylcellulose) (HPC)); -55 % of control (dose: 27.0 mg/kg/injection, schedule: Q04DX003 (ip), vehicle: Klucel (hydroxypropylcellulose) (HPC)).
`Oc1cccc2ccccc12`: the T/C (dose: 150.0 mg/kg/injection, schedule: Q04DX003 (ip), vehicle: water) was 81 % of control.
As for `Cc1cc(N/N=C/c2ccccn2)nc2ccccc12`, the T/C runs as follows: (dose: 300.0 mg/kg/injection, schedule: Q04DX003 (sc), vehicle: Klucel (hydroxypropylcellulose) (HPC)) 74 % of control; (dose: 600.0 mg/kg/injection, schedule: Q04DX003 (sc), vehicle: Klucel (hydroxypropylcellulose) (HPC)) 73 % of control; (dose: 1200.0 mg/kg/injection, schedule: Q04DX003 (sc), vehicle: Klucel (hydroxypropylcellulose) (HPC)) 43 % of control; (dose: 2400.0 mg/kg/injection, schedule: Q04DX003 (sc), vehicle: Klucel (hydroxypropylcellulose) (HPC)) 68 % of control.
Consider `NCCSC(C[N+](=O)[O-])c1ccccc1Cl` (stereo not drawn), for which the T/C reads like this: (dose: 25.0 mg/kg/injection, schedule: Q04DX003 (ip), vehicle: saline) 86 % of control; (dose: 50.0 mg/kg/injection, schedule: Q04DX003 (ip), vehicle: saline) 86 % of control; (dose: 100.0 mg/kg/injection, schedule: Q04DX003 (ip), vehicle: saline) 85 % of control.
For `Nc1ccc2ccc(N)cc2c1`, the T/C is 75 % of control under setting [1] and 65 % of control under setting [2].
As to `CC[C@]1(O)C[C@H]2CN(CCc3c([nH]c4ccccc34)[C@@](C(=O)OC)(c3cc4c(cc3OC)N(C)[C@H]3[C@@](O)(C(=O)OC)[C@H](OC(C)=O)[C@]5(CC)C=CCN6CC[C@]43[C@@H]65)C2)C1`, the T/C by setting is: (dose: 0.25 mg/kg/injection, schedule: Q01DX010 (sc), vehicle: saline) 43 % of control; (dose: 0.5 mg/kg/injection, schedule: Q01DX010 (sc), vehicle: saline) 18 % of control.
For `C/C=C(\C)c1cc(=O)c2c(C)cc3c(c2o1)C(=O)c1c(O)c(C2CC(C)(N(C)C)C(OC(C)=O)C(C)O2)cc(C2CC(N(C)C)C(O)C(C)O2)c1C3=O` (stereo not drawn), the T/C runs as follows: (dose: 2.5 mg/kg/injection, schedule: Q04DX003 (sc), vehicle: saline) 91 % of control; (dose: 40.0 mg/kg/injection, schedule: Q04DX003 (sc), vehicle: saline) 39 % of control and 43 % of control.
For the compound `CCCCCc1cc(/C=C2/N=C(c3ccc[nH]3)C=C2OC)[nH]c1C`, the T/C is 93 % of control (dose: 16.0 mg/kg/injection, schedule: Q04DX003 (sc), vehicle: saline with Tween-80); 93 % of control (dose: 32.0 mg/kg/injection, schedule: Q04DX003 (sc), vehicle: saline with Tween-80); 75 % of control (dose: 64.0 mg/kg/injection, schedule: Q04DX003 (sc), vehicle: saline with Tween-80); 46 % of control (dose: 128.0 mg/kg/injection, schedule: Q04DX003 (sc), vehicle: saline with Tween-80).
For the compound `O=c1n(CC2CO2)c(=O)n(CC2CO2)c(=O)n1CC1CO1` (stereo not drawn), the T/C was 37 % of control (dose: 25.0 mg/kg/injection, schedule: Q01DX010 (sc), vehicle: saline); 18 % of control (dose: 25.0 mg/kg/injection, schedule: Q04DX003 (sc), vehicle: suspension in saline); -100 % of control (dose: 50.0 mg/kg/injection, schedule: Q04DX003 (sc), vehicle: suspension in saline).
For the compound `CC(C)(O)/C=C/C(=O)[C@](C)(O)[C@H]1[C@H](O)C[C@@]2(C)[C@@H]3CC=C4[C@@H](C=C(O)C(=O)C4(C)C)[C@]3(C)C(=O)C[C@]12C`, the T/C runs as follows: (dose: 0.25 mg/kg/injection, schedule: Q04DX003 (ip), vehicle: water) 155 % of control; (dose: 0.5 mg/kg/injection, schedule: Q04DX003 (ip), vehicle: water) 118 % of control; (dose: 1.0 mg/kg/injection, schedule: Q04DX003 (ip), vehicle: water) 122 % of control; (dose: 2.0 mg/kg/injection, schedule: Q04DX003 (ip), vehicle: water) 86 % of control.
Consider `CCCCCCn1c(SC)nc(COC(=O)NC)c1COC(=O)NC`, for which the T/C (dose: 33.7 mg/kg/injection, schedule: Q04DX003 (ip), vehicle: saline) is 6 % of control; the T/C (dose: 67.5 mg/kg/injection, schedule: Q04DX003 (ip), vehicle: saline) was -37 % of control; the T/C (dose: 135.0 mg/kg/injection, schedule: Q04DX003 (ip), vehicle: saline) is -86 % of control; the T/C (dose: 270.0 mg/kg/injection, schedule: Q04DX003 (ip), vehicle: saline) is -100 % of control.
As for `O=C1C=CN(C2OC(CO)C(O)C2O)C(=O)C1` (stereo not drawn), the T/C reads like this: (dose: 90.0 mg/kg/injection, schedule: Q01DX009 (ip), vehicle: saline) 65 % of control; (dose: 133.4 mg/kg/injection, schedule: Q01DX009 (ip), vehicle: saline) 98 % of control; (dose: 200.0 mg/kg/injection, schedule: Q01DX009 (ip), vehicle: saline) 89 % of control; (dose: 300.0 mg/kg/injection, schedule: Q01DX009 (ip), vehicle: saline) 36 % of control.
In the case of `N=C(N)c1ccc(Nc2ccc(-c3cc4ccc(C(=N)N)cc4[nH]3)cc2)cc1`, the T/C runs as follows: (dose: 3.75 mg/kg/injection, schedule: Q04DX003 (ip), vehicle: saline) 84 % of control; (dose: 7.5 mg/kg/injection, schedule: Q04DX003 (ip), vehicle: saline) 69 % of control; (dose: 15.0 mg/kg/injection, schedule: Q04DX003 (ip), vehicle: saline) 62 % of control.
Turning to `Oc1ccc(/C=N/N=C/c2ccc(O)c(O)c2)cc1O`, the T/C by setting is: (dose: 75.0 mg/kg/injection, schedule: Q04DX003 (ip), vehicle: saline with Tween-80) 68 % of control; under setting [1], 46 % of control; under setting [2], 78 % of control; (dose: 1200.0 mg/kg/injection, schedule: Q04DX003 (ip), vehicle: saline with Tween-80) 82 % of control.
For `Oc1ccc(CCl)c2cccnc12`, the T/C was 120 % of control (dose: 75.0 mg/kg/injection, schedule: Q04DX003 (sc), vehicle: saline); 99 % of control (dose: 150.0 mg/kg/injection, schedule: Q04DX003 (sc), vehicle: saline); 87 % of control (dose: 300.0 mg/kg/injection, schedule: Q04DX003 (sc), vehicle: saline).
In the case of `O=NNc1cccnc1`, the T/C by setting is: (dose: 25.0 mg/kg/injection, schedule: Q04DX003 (ip), vehicle: water) 103 % of control and 113 % of control; (dose: 50.0 mg/kg/injection, schedule: Q04DX003 (ip), vehicle: water) 108 % of control.
